Measurements reported in patent US20230382915A1, “GCN2 AND PERK KINASE INHIBITORS AND METHODS OF USE THEREOF” (Deciphera Pharmaceuticals, LLC, priority 2021, published 2023).

Legend:
GCN2 kinase = GCN2 kinase (Homo sapiens (Human), UniProt Q9P2K8); experiment: Biochemical assay for GCN2 (TR-FRET kinase activity); settings: 1 mM ATP
Protocol: Activity of GCN2 kinase was determined using a TR-FRET kinase activity assay (e.g. Riddle et al. Analytical Biochemistry (2006) 356(1) 108-116). Assays were conducted in 384-well plates (13 μL assay volume) using 2 nM GCN2 (Carna Biosciences), 130 nM GFP-EIf2α (Invitrogen), 0.2 mg/mL E. coli tRNA (sigma) and 1 mM ATP in kinase buffer (Invitrogen). Inhibition of GCN2 was measured by adding serial diluted test compound (final assay concentration of 0.5% DMSO) followed by a 3-hour incubation. Tb-peIF2α (pSer52) antibody (Invitrogen) (2 nM final assay concentration) in kinase buffer containing EDTA (final assay concentration of 20 mM) was added. After a 60 min incubation at room temperature, TR-FRET was monitored using an excitation wavelength of 340 nm and emission wavelengths of 490 nm and 520 nm. The emission ratio (520/490) at each compound concentration of was converted to percent inhibition using controls (i.e., reaction with no test compound and reaction with a known inhibitor) and IC50 values were calculated by fitting a four-parameter sigmoidal curve to the data using Prism (GraphPad software).

PERK enzyme = PERK enzyme (Homo sapiens (Human), UniProt Q9NZJ5); experiment: Biochemical assay for PERK (coupled pyruvate kinase/lactate dehydrogenase); settings: 1 mM ATP
Chain of PERK enzyme (Q9NZJ5 other isoform, or with tags, fused parts or gaps): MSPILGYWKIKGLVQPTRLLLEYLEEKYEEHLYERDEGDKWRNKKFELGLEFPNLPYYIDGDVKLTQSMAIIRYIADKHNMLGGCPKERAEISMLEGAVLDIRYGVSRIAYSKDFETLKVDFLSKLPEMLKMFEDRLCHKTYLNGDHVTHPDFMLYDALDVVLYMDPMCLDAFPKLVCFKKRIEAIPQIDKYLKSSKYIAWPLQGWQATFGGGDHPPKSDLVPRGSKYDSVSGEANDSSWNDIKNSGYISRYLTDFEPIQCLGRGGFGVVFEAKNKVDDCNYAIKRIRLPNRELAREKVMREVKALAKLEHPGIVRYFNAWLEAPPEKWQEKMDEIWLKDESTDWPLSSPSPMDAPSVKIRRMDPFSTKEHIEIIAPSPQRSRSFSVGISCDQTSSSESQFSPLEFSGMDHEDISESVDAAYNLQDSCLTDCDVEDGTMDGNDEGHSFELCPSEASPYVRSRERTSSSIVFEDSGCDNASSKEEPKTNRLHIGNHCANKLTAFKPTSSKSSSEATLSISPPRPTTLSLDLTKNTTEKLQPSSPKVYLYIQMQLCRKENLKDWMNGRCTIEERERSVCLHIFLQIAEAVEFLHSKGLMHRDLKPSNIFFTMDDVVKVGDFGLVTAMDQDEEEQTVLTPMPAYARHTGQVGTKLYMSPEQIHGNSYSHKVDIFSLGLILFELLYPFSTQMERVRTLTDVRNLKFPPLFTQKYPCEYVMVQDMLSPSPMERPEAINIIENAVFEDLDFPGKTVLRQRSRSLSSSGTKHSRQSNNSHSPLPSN
Protocol: Activity of PERK kinase was determined spectroscopically using a coupled pyruvate kinase/lactate dehydrogenase assay that continuously monitors the ATP hydrolysis-dependent oxidation of NADH (e.g., Schindler et al. Science (2000) 289: 1938-1942). Assays were conducted in 384-well plates ([…] final volume) using 10 nM PERK (from Beryllium), 0.25 mg/mL Myelin Basic Protein substrate, 1.5 units pyruvate kinase, 2.1 units lactate dehydrogenase, 1 mM phosphoenol pyruvate, 0.28 mM NADH and 1 mM ATP in assay buffer (100 mM Tris, pH 7.5, 15 mM MgCl2, 0.5 mM DTT, 0.004% (w/v) BSA, and 0.004% Triton X-100). Inhibition of PERK was measured by adding serial diluted test compound (final assay concentration of 1% DMSO). A decrease in absorption at 340 nm was monitored continuously for 6 hours at 30° C. on a multi-mode microplate reader (BioTek). The reaction rate was calculated using the 2-3 h time frame. The reaction rate at each concentration of compound was converted to percent inhibition using controls (i.e., reaction with no test compound and reaction with a known inhibitor) and IC50 values were calculated using software routines in Prism (GraphPad software).

CCRF-CEM leukemia cells = experiment: CCRF-CEM ASNase cell proliferation assay; format: cell-based; settings: Homo sapiens, 1 mU/mL ASNase, 72 h
Protocol: CCRF-CEM leukemia cells (catalog #CCL-116) were obtained from the American Type Culture Collect (ATTC, Manassas, VA). Cells were grown in RPMI-1640 medium supplemented with 10% heat-inactivated fetal bovine serum (Invitrogen, Carlsbad, CA) and 1% Penicillin/Streptomycin/L-Glutamine at 37° C., 5% CO2, and 95% humidity. Cells were expanded until reaching one million cells per mL at which time they are subcultured or harvested for assay use. Ten thousand cells per well in 200 μL RPMI-1640 supplemented with 10% heat-inactivated fetal bovine serum and 1% Penicillin/Streptomycin were dispensed into a 96-well black clear bottom plate. A serial dilution of test compound and 1 mU/mL ASNase was added in triplicate and plates were incubated for 72 h at 37° C., 5% CO2, and 95% humidity. At the end of the incubation, 40 μL of a […] solution of resazurin (Sigma, St. Louis, MO) in PBS was added to each well of the plate and plates were incubated for an additional 6 h at 37° C., 5% CO2, and 95% humidity. Plates were read on a Synergy2 or equivalent reader (Biotek, Winooski VT) using an excitation of 540 nm and an emission of 600 nm. Data was analyzed using GraphPad Prism software (GraphPad, San Diego, CA) to calculate IC50 values.

[1] = tested on: ATF4 in thapsigargin stimulated CCRF-CEM cells (PERK); experiment: CCRF-CEM thapsigargin (TG) ATF4 ELISA; format: cell-based; settings: Homo sapiens, 1 μM thapsigargin
Protocol: CCRF-CEM leukemia cells (catalog #CCL-116) were obtained from the American Type Culture Collection (ATTC, Manassas, VA). Briefly, cells were grown in RPMI-1640 medium supplemented with 10% heat-inactivated fetal bovine serum (Invitrogen, Carlsbad, CA) and 1% Penicillin/Streptomycin/L-Glutamine at 37° C., 5% CO2, and 95% humidity. Cells were expanded until reaching one million cells per mL at which time they were subcultured or harvested for assay use. One million five hundred thousand cells per well in 1 mL complete growth medium were dispensed into 12-well plates and incubated overnight. A serial dilution of test compound was added and cells were incubated at 37° C., 5% CO2, and 95% for three hours, then 1 μM thapsigargin was added and cells were incubated for an additional hour at 37° C., 5% CO2, and 95%. Cells were lysed then ATF4 levels were measured using an ELISA assay (Proteintech, Rosemont, IL). Absorbance was measured at 450 nm and 544 nM using a Synergy2 or equivalent reader (Biotek, Winooski VT). Data was analyzed using PRISM software (Graphpad, San Diego, CA) to calculate IC50 values.

[2] = tested on: ATF4 in H929 multiple myeloma cells; experiment: H929 ATF4 ELISA assay; format: cell-based; settings: four hours, relative to vehicle treated control
Protocol: H929 multiple myeloma cells (catalog #CRL-9068) were obtained from the American Type Culture Collection (ATTC, Manassas, VA). Briefly, cells were grown in RPMI-1640 medium supplemented with 20% heat-inactivated fetal bovine serum (catalog #A3840002, ThermoFisher Scientific, Waltham, MA), 1% Penicillin/Streptomycin/L-Glutamine (catalog #10378016, ThermoFisher Scientific, Waltham, MA), and 0.05 mM 2-mercaptoethanol (catalog #21985-023, ThermoFisher Scientific, Waltham, MA) at 37° C., 5% CO2, and 95% humidity. Cells were expanded until reaching one million five hundred thousand cells per mL at which time they were sub-cultured or harvested for assay use. One million five hundred thousand cells per well in 1 mL complete growth medium were dispensed into 12-well plates and incubated overnight. A serial dilution of test compound was added, and cells were incubated at 37° C., 5% CO2, and 95% for four hours. Cells were lysed then ATF4 levels were measured using an ELISA assay (Proteintech, Rosemont, IL). Absorbance is measured at 450 nm and 544 nM using a Synergy2 or equivalent reader (Biotek, Winooski VT). Data were analyzed using PRISM software (Graphpad, San Diego, CA) to calculate fold stimulation of cellular ATF4 relative to vehicle treated control.

[3] = tested on: phospho-GCN2 (Thr899) in HCT116 colorectal cancer cells; experiment: HCT116 amino acid starved (-AA) phospho-GCN2 Western blot; format: cell-based; settings: Homo sapiens, HCT-116, 4 h, read-out: HCT116 -AA pGCN2 Western Blot
Protocol: (§1) HCT116 colorectal cancer cells (catalog #CCL-247) were obtained from the American Type Culture Collect (ATTC, Manassas, VA). Briefly, cells were grown in RPMI 1640 supplemented with 10% heat inactivated fetal bovine serum (Invitrogen, Carlsbad, CA) and 1% Penicillin/Streptomycin/L-Glutamine at 37° C., 5% CO2, and 95% humidity. Cells were expanded until reaching 70-95% confluency at which point they were subcultured or harvested for assay use. Cells were seeded in 12-well culture plate at five hundred thousand cells per well in 1 mL complete growth medium and incubated overnight at 37° C., 5% CO2, and 95% humidity. The next day each well was replaced with 1 mL Earle's Balanced Salt Solution (EBSS, Invitrogen, Carlsbad, CA) supplemented with 10% Dialyzed Fetal Bovine Serum, 5.5 mM Glucose, 1% Penicillin/Streptomycin and 1% Vitamin solution (thermo #11120052). A serial dilution of test compound was dispensed into well. Plates were incubated for 4 h at 37° C., 5% CO2, and 95% humidity. […] Western blot was performed on each lysate to quantify phospho-GCN2 (Thr899), total GCN2, ATF4 and beta-Actin. […] Data were analyzed using GraphPad Prism software (GraphPad, San Diego, CA) to calculate IC50 values.

[4] = tested on: ATF4 in HCT116 colorectal cancer cells; experiment: HCT116 amino acid starved (-AA) ATF4 Western blot; format: cell-based; settings: Homo sapiens, HCT-116, 4 h
Protocol: as §1

Chain of GCN2 kinase (Q9P2K8 whole entry): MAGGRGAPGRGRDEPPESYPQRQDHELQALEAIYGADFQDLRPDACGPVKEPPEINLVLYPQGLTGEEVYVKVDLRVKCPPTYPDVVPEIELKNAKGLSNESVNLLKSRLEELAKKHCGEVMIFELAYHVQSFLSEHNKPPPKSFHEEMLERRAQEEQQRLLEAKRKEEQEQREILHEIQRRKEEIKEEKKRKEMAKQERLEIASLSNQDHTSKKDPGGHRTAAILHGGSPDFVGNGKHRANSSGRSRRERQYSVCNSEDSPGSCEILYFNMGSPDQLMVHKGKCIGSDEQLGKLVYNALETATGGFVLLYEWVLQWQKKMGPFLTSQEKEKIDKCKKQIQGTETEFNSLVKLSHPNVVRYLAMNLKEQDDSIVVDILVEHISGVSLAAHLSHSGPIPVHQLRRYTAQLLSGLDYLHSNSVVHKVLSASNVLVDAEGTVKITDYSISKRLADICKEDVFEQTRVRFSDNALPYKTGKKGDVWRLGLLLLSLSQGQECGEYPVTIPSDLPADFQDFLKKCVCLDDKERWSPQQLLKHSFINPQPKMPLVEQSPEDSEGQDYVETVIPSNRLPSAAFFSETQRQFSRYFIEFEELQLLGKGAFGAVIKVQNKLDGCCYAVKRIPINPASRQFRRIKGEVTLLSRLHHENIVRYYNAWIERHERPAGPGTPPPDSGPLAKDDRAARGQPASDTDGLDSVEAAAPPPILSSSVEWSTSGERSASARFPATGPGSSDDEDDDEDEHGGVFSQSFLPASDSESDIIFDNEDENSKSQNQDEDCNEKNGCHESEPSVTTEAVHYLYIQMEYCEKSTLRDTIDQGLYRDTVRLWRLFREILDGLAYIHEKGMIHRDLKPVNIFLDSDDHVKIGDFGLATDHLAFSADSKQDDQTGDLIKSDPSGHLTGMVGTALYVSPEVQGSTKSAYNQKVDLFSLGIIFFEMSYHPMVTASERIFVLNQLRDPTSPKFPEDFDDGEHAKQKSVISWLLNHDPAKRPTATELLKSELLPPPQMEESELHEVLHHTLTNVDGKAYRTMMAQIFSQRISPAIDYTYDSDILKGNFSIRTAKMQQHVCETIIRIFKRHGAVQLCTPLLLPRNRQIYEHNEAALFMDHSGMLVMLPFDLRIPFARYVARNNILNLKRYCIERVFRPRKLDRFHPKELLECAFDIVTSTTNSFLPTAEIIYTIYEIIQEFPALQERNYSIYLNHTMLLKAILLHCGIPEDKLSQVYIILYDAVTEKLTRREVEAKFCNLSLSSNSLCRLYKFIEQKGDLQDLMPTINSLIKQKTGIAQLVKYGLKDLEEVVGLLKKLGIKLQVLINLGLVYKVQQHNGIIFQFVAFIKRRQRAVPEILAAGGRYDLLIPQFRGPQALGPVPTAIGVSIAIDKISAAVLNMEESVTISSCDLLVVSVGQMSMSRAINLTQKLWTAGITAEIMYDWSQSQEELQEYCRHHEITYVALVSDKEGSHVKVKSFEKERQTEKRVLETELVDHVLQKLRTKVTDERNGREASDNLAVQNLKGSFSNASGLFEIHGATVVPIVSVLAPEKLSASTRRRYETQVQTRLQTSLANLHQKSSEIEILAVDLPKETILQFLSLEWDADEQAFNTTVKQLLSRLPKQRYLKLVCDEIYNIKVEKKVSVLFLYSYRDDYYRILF

Nc1ncnc2c1c(-c1cccc(NS(=O)(=O)c3cc(Cl)cc(CO)c3Cl)c1F)cn2C1CC1 [Example 8]
IC50 (GCN2 kinase): ≤ 100 nM
IC50 (PERK enzyme): ≤ 100 nM
IC50 (CCRF-CEM leukemia cells): ≤ 100 nM
IC50 [1]: ≤ 100 nM
H929 NS ATF4 ELISA (ATF4 stim) [2]: +++ (an ATF4 stim greater than 10 fold and less than or equal to 20 fold)

Cn1nc(-c2cccc(NS(=O)(=O)c3cc(Cl)cc(CO)c3Cl)c2F)c2c(N)ncnc21 [Example 21]
IC50 (GCN2 kinase): ≤ 100 nM
IC50 (PERK enzyme): ≤ 100 nM
IC50 (CCRF-CEM leukemia cells): 100 to 500 nM
IC50 [1]: 100 to 500 nM
H929 NS ATF4 ELISA (ATF4 stim) [2]: ++ (an ATF4 stim greater than 5-fold and less than or equal to 10 fold)

Nc1ncnc2c1c(-c1cccc(NS(=O)(=O)c3cc(Cl)cc(CO)c3Cl)c1F)cn2C1COC1 [Example 10]
IC50 (GCN2 kinase): ≤ 100 nM
IC50 (PERK enzyme): ≤ 100 nM
IC50 (CCRF-CEM leukemia cells): ≤ 100 nM
IC50 [1]: ≤ 100 nM
H929 NS ATF4 ELISA (ATF4 stim) [2]: +++ (an ATF4 stim greater than 10 fold and less than or equal to 20 fold)

CC(C)n1cc(-c2cccc(NS(=O)(=O)c3cc(Cl)cc(CO)c3Cl)c2F)c2c(N)ncnc21 [Example 3]
IC50 (GCN2 kinase): ≤ 100 nM
IC50 (PERK enzyme): ≤ 100 nM
IC50 (CCRF-CEM leukemia cells): ≤ 100 nM
IC50 [3]: ≤ 100 nM
IC50 [4]: ≤ 100 nM
IC50 [1]: ≤ 100 nM

Cc1c(CO)cc(Cl)cc1S(=O)(=O)Nc1cccc(-c2cn(C)c3ncnc(N)c23)c1F [Example 26]
IC50 (GCN2 kinase): ≤ 100 nM
IC50 (PERK enzyme): ≤ 100 nM
IC50 (CCRF-CEM leukemia cells): 100 to 500 nM
IC50 [1]: ≤ 100 nM
H929 NS ATF4 ELISA (ATF4 stim) [2]: +++ (an ATF4 stim greater than 10 fold and less than or equal to 20 fold)

COc1c(CO)cc(Cl)cc1S(=O)(=O)Nc1cccc(-c2cn(C)c3ncnc(N)c23)c1F [Example 24]
IC50 (GCN2 kinase): 1000 to 10000 nM
IC50 (PERK enzyme): ≤ 100 nM
IC50 (CCRF-CEM leukemia cells): 1000 to 10000 nM
IC50 [1]: 100 to 500 nM
H929 NS ATF4 ELISA (ATF4 stim) [2]: ++ (an ATF4 stim greater than 5-fold and less than or equal to 10 fold)
